Experiments:
[1] = tested on: OVTOKO (Ovarian Carcinoma); test: Bliss excess, mean over the matrix (fraction); higher = more synergy
Outline: (§1)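 Cell lines grown in DMEM/F12 or RPMI with 10% FBS were plated in 1536-well plates and held 24 hours at 37°C, 5% CO2 before 72 hours of exposure to two-drug dose matrices, with DMSO typically at 0.2%. CellTiter-Glo 2.0 luminescence gave viability, which was converted to inhibition. Vehicle wells were set to 0 and blank wells to 1. Combination Emax is the second-highest inhibition in the matrix, and Bliss excess is the observed combination effect minus the expected EA + EB − EA·EB, where EA and EB are the single-agent effects.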

[2] = tested on: SJRH30 (Rhabdomyosarcoma); test: as above
Outline: as §1

[3] = tested on: COLO-684 (Endometrial Carcinoma); test: as above
Outline: as §1

[4] = tested on: EB-3 (Burkitt's Lymphoma); test: as above
Outline: as §1

[5] = tested on: SNU-175 (Colorectal Carcinoma); test: as above
Outline: as §1

[6] = tested on: NKM-1 (Acute Myeloid Leukemia); test: as above
Outline: as §1

[7] = tested on: PANC-02-03 (Pancreatic Carcinoma); test: as above
Outline: as §1

[8] = tested on: SW684 (Other Solid Carcinomas); test: as above
Outline: as §1

[9] = tested on: HTC-C3 (Thyroid Gland Carcinoma); test: as above
Outline: as §1

CHL-1 (Melanoma) = test: as above
Outline: as §1

[10] = tested on: CML-T1 (Chronic Myelogenous Leukemia); test: as above
Outline: as §1

[11] = tested on: JHH-1 (Hepatocellular Carcinoma); test: as above
Outline: as §1

[12] = tested on: OV-90 (Ovarian Carcinoma); test: as above
Outline: as §1

[13] = tested on: AN3-CA (Endometrial Carcinoma); test: as above
Outline: as §1

[14] = tested on: RMG-I (Ovarian Carcinoma); test: as above
Outline: as §1

[15] = tested on: Caov-3 (Ovarian Carcinoma); test: as above
Outline: as §1

[16] = tested on: OCI-AML5 (Acute Myeloid Leukemia); test: as above
Outline: as §1

ES-2 (Ovarian Carcinoma) = test: as above
Outline: as §1

[17] = tested on: LAMA-84 (Chronic Myelogenous Leukemia); test: combination Emax (second highest fraction inhibited in the dose matrix, 72 h); higher = more inhibition; extreme values may be limits of the assay
Outline: as §1

[18] = tested on: NCI-H1155 (Non-Small Cell Lung Carcinoma); test: as above
Outline: as §1
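Wherever Bliss excess, mean over the matrix is given: after 72 h of two-drug dosing.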

| Compound | Bliss excess [1] | Bliss excess [2] | Bliss excess [3] | Bliss excess [4] | Bliss excess [5] | Bliss excess [6] | Bliss excess [7] | Bliss excess [8] | Bliss excess [9] | Bliss excess (CHL-1 (Melanoma)) | Bliss excess [10] | Bliss excess [11] | Bliss excess [12] | Bliss excess [13] | Bliss excess [14] | Bliss excess [15] | Bliss excess [16] | Bliss excess (ES-2 (Ovarian Carcinoma)) | combination Emax [17] | combination Emax [18] |
| --- | --- | --- | --- | --- | --- | --- | --- | --- | --- | --- | --- | --- | --- | --- | --- | --- | --- | --- | --- | --- |
| CN(C)CCCOc1ccc(-c2ccc3ncc4c(c3c2)n(C2CCOCC2)c(=O)n4C)cn1 [AZD0156] + C=CCn1c(=O)c2cnc(Nc3ccc(N4CCN(C)CC4)cc3)nc2n1-c1cccc(C(C)(C)O)n1 [AZD1775] (first compound max 1 µM, partner max 1 µM) | -0.0255 | -0.0467 | -0.0266 | -0.0289 | 0.0169 | -0.0605 | -0.026 | -0.076 | -0.0187 | -0.0427 | -0.0271 | -0.0501 | -0.0335 | -0.0041 | -0.0545 | -0.0434 | -0.0359 | -0.0249 | 0.942 | 0.342 |
| CN(C)CCCOc1ccc(-c2ccc3ncc4c(c3c2)n(C2CCOCC2)c(=O)n4C)cn1 [AZD0156] + CCN(CCO)CCCOc1ccc2c(Nc3cc(CC(=O)Nc4cccc(F)c4)[nH]n3)ncnc2c1 [AZD2811] (first compound max 1 µM, 7x7, partner max 1 µM) | -0.0337 | 0.0035 | -0.0036 | 0.0304 | -0.0101 | -0.031 | -0.0371 | -0.0583 | -0.0198 | 0.0015 | 0.0352 | -0.0159 | -0.0823 | -0.0019 | -0.072 | -0.0478 | -0.0185 | -0.0163 | 0.296 | 0.377 |
| CN(C)CCCOc1ccc(-c2ccc3ncc4c(c3c2)n(C2CCOCC2)c(=O)n4C)cn1 [AZD0156] + C[C@@H]1COCCN1C2=NC(=NC(=C2)C3(CC3)[S@](=N)(=O)C)C4=C5C=CNC5=NC=C4 [AZD6738] (first compound max 1 µM, 7x7, partner max 10 µM) | 0.0039 | 0.0408 | -0.0496 | -0.0035 | 0.0006 | -0.11 | -0.0412 | -0.0526 | 0.0193 | 0.0023 | -0.0095 | 0.0102 | -0.0323 | -0.0226 | -0.0095 | -0.026 | -0.0479 | -0.0217 | 0.97 | 0.748 |
| C=CCn1c(=O)c2cnc(Nc3ccc(N4CCN(C)CC4)cc3)nc2n1-c1cccc(C(C)(C)O)n1 [AZD1775] + C[C@@H]1COCCN1C2=NC(=NC(=C2)C3(CC3)[S@](=N)(=O)C)C4=C5C=CNC5=NC=C4 [AZD6738] (first compound max 1 µM, partner max 10 µM) | -0.0308 | 0.0467 | 0.0245 | 0.0002 | 0.039 | 0.0023 | -0.0701 | -0.0662 | 0.101 | -0.0012 | 0.0296 | 0.0194 | -0.102 | -0.0159 | -0.0161 | -0.025 | 0.005 | 0.0105 | 0.993 | 0.864 |
| C=CCn1c(=O)c2cnc(Nc3ccc(N4CCN(C)CC4)cc3)nc2n1-c1cccc(C(C)(C)O)n1 [AZD1775] + O=C(c1cc(Cc2n[nH]c(=O)c3ccccc23)ccc1F)N1CCN(C(=O)C2CC2)CC1 [Olaparib] (first compound max 1 µM, partner max 10 µM) | -0.0514 | -0.0057 | -0.12 | -0.0426 | -0.0028 | -0.0375 | -0.0513 | -0.0689 | -0.0064 | -0.0491 | 0.0213 | -0.0244 | -0.0424 | 0.0003 | -0.0105 | -0.0396 | -0.0096 | -0.0517 | 0.943 | 0.454 |
| CCN(CCO)CCCOc1ccc2c(Nc3cc(CC(=O)Nc4cccc(F)c4)[nH]n3)ncnc2c1 [AZD2811] + C=CCn1c(=O)c2cnc(Nc3ccc(N4CCN(C)CC4)cc3)nc2n1-c1cccc(C(C)(C)O)n1 [AZD1775] (first compound max 1 µM, partner max 1 µM) | -0.0353 | 0.0089 | -0.0443 | -0.071 | -0.0108 | 0.0269 | -0.0628 | -0.0454 | -0.0174 | 0.0161 | 0.0392 | -0.0609 | 0.021 | 0.0276 | -0.0711 | -0.0603 | -0.0295 | -0.0111 | 0.917 | 0.45 |
| CCN(CCO)CCCOc1ccc2c(Nc3cc(CC(=O)Nc4cccc(F)c4)[nH]n3)ncnc2c1 [AZD2811] + C[C@@H]1COCCN1C2=NC(=NC(=C2)C3(CC3)[S@](=N)(=O)C)C4=C5C=CNC5=NC=C4 [AZD6738] (first compound max 1 µM, 7x7, partner max 10 µM) | -0.0305 | -0.0079 | -0.0913 | -0.0835 | -0.07 | 0.0425 | -0.101 | -0.073 | -0.0273 | -0.0344 | 0.0199 | -0.0574 | -0.0772 | -0.0315 | -0.0734 | -0.0747 | -0.0299 | -0.0445 | 0.97 | 0.787 |
| CCN(CCO)CCCOc1ccc2c(Nc3cc(CC(=O)Nc4cccc(F)c4)[nH]n3)ncnc2c1 [AZD2811] + O=C(c1cc(Cc2n[nH]c(=O)c3ccccc23)ccc1F)N1CCN(C(=O)C2CC2)CC1 [Olaparib] (first compound max 1 µM, 7x7, partner max 10 µM) | -0.012 | 0.0189 | -0.0102 | -0.0307 | -0.0141 | 0.0342 | 0.0133 | -0.0219 | -0.0101 | -0.0035 | 0.029 | 0.0078 | -0.0026 | -0.0011 | -0.0141 | -0.0444 | -0.0224 | -0.0182 | 0.488 | 0.443 |
| CN(CCO)CC[C@H](CSc1ccccc1)Nc1ccc(S(=O)(=O)NC(=O)c2ccc(N3CCC([C@@H](O)c4ccccc4-c4ccc(Cl)cc4)CC3)cc2)cc1S(=O)(=O)C(F)(F)F [AZD4320] + C1CN(CCC1(C(=O)N[C@@H](CCO)C2=CC=C(C=C2)Cl)N)C3=NC=NC4=C3C=CN4 [Capivasertib] (first compound max 1 µM, 7x7, partner max 3 µM) | -0.0381 | 0.0085 | -0.0157 | -0.0462 | -0.0205 | 0.0099 | -0.0617 | -0.0619 | -0.0498 | -0.028 | 0.0023 | -0.149 | -0.0635 | -0.0186 | -0.0527 | -0.0309 | 0.0104 | -0.0346 | 0.696 | 0.904 |
| CN(CCO)CC[C@H](CSc1ccccc1)Nc1ccc(S(=O)(=O)NC(=O)c2ccc(N3CCC([C@@H](O)c4ccccc4-c4ccc(Cl)cc4)CC3)cc2)cc1S(=O)(=O)C(F)(F)F [AZD4320] + C=CCn1c(=O)c2cnc(Nc3ccc(N4CCN(C)CC4)cc3)nc2n1-c1cccc(C(C)(C)O)n1 [AZD1775] (first compound max 1 µM, partner max 1 µM) | 0.0002 | 0.0076 | -0.0301 | -0.0269 | -0.0371 | 0.035 | 0.0045 | -0.0416 | 0.08 | 0.0509 | -0.0082 | 0.136 | 0.0909 | -0.0004 | 0.0664 | 0.0779 | 0.0099 | 0.0065 | 1 | 0.908 |
| CN(CCO)CC[C@H](CSc1ccccc1)Nc1ccc(S(=O)(=O)NC(=O)c2ccc(N3CCC([C@@H](O)c4ccccc4-c4ccc(Cl)cc4)CC3)cc2)cc1S(=O)(=O)C(F)(F)F [AZD4320] + CCN(CCO)CCCOc1ccc2c(Nc3cc(CC(=O)Nc4cccc(F)c4)[nH]n3)ncnc2c1 [AZD2811] (first compound max 1 µM, 7x7, partner max 1 µM) | -0.0324 | 0.108 | -0.0217 | -0.0065 | 0.0362 | 0.0403 | -0.0246 | -0.0717 | -0.0348 | 0.133 | 0.0624 | 0.0925 | 0.0409 | 0.101 | -0.0297 | 0.0419 | -0.004 | -0.0208 | 0.906 | 0.918 |
| CN(CCO)CC[C@H](CSc1ccccc1)Nc1ccc(S(=O)(=O)NC(=O)c2ccc(N3CCC([C@@H](O)c4ccccc4-c4ccc(Cl)cc4)CC3)cc2)cc1S(=O)(=O)C(F)(F)F [AZD4320] + CN(C)CCCOc1ccc(-c2ccc3ncc4c(c3c2)n(C2CCOCC2)c(=O)n4C)cn1 [AZD0156] (first compound max 1 µM, 7x7, partner max 1 µM) | -0.0217 | 0.0144 | -0.0218 | -0.0389 | -0.0219 | -0.0871 | -0.0553 | -0.0641 | -0.0185 | -0.0242 | 0.013 | -0.0513 | -0.0141 | -0.0153 | -0.048 | -0.0198 | -0.0015 | -0.0259 | 0.667 | 0.717 |
| CN(CCO)CC[C@H](CSc1ccccc1)Nc1ccc(S(=O)(=O)NC(=O)c2ccc(N3CCC([C@@H](O)c4ccccc4-c4ccc(Cl)cc4)CC3)cc2)cc1S(=O)(=O)C(F)(F)F [AZD4320] + C[C@@H]1COCCN1C2=NC(=NC(=C2)C3(CC3)[S@](=N)(=O)C)C4=C5C=CNC5=NC=C4 [AZD6738] (first compound max 1 µM, 7x7, partner max 10 µM) | -0.112 | 0.0213 | -0.0589 | -0.0287 | 0.0023 | 0.0067 | -0.0584 | -0.0548 | -0.0305 | 0.0607 | 0.0149 | -0.0234 | -0.0354 | -0.0091 | -0.13 | -0.0186 | 0.0284 | -0.0061 | 0.989 | 0.985 |
| CCc1c2c(nc3ccc(O)cc13)-c1cc3c(c(=O)n1C2)COC(=O)[C@]3(O)CC [SN-38] + O=C(c1cc(Cc2n[nH]c(=O)c3ccccc23)ccc1F)N1CCN(C(=O)C2CC2)CC1 [Olaparib] (first compound max 0.3 µM, 7x7, partner max 10 µM) |  | 0.0591 | -0.0188 | -0.0075 | 0.0238 | 0.0274 | 0.0609 | -0.0048 | 0.0591 | 0.0683 | -0.0065 | 0.0041 | 0.0633 |  | 0.0057 | 0.0886 |  |  | 0.948 | 0.968 |
